According to ChEMBL document CHEMBL1129133 (Bioorg Med Chem Lett, 1996):

How the values were obtained:
Phosphodiesterase 1 = Phosphodiesterase 1 (Rattus norvegicus, UniProt Q63421+Q9EPR9+Q01066); experiment: Inhibition of Phosphodiesterase 1 from rat liver
[1] = target: cGMP-specific 3',5'-cyclic phosphodiesterase (Homo sapiens, UniProt O76074); experiment: Inhibition of Phosphodiesterase 5 from human corpus cavernosum
Phosphodiesterase 3 = Phosphodiesterase 3 (Homo sapiens, UniProt Q14432+Q13370); experiment: Inhibition of Phosphodiesterase 3 from rabbit platelets; parameters: species or system Oryctolagus cuniculus; conditions: target entry is the homologue from another species
[2] = Lipophilicity was determined; assay type: physicochemical; conditions: octanol/water

IC50 (Phosphodiesterase 1) | IC50 [1] | IC50 (Phosphodiesterase 3) | logD [2] | SMILES
0.86 µM | 0.082 µM | – | – | CCCc1n[nH]c2c(O)nc(-c3ccccc3OCC)nc12
3.3 µM | – | > 100 µM | – | CCOc1ccccc1-c1nc2c(C)nn(C)c2c(=O)[nH]1
0.11 µM | – | 34 µM | 2.3 | CCCc1nn(C)c2c(O)nc(-c3cc(S(=O)(=O)N4CCN(C(N)=O)CC4)ccc3OCC)nc12
– | – | 63 µM | – | CCCc1n[nH]c2c(=O)[nH]c(-c3ccccc3)nc12
0.46 µM | – | 62 µM | 2 | CCCc1nn(C)c2c(=O)[nH]c(-c3cc(S(=O)(=O)N4CCN(CCO)CC4)ccc3OCC)nc12 [LODENAFIL]
9.4 µM | – | > 100 µM | – | CCCOc1ccccc1-c1nc2[nH]nnc2c(=O)[nH]1 [ZAPRINAST]
– | – | > 100 µM | – | CCCc1n[nH]c2c(O)nc(-c3ccccc3O)nc12
– | – | 47 µM | – | CCCc1nn(C)c2c(=O)[nH]c(-c3ccccc3OCC3CC3)nc12
– | – | 83 µM | – | CCCc1nn(C)c2c(=O)[nH]c(-c3ccccc3NS(C)(=O)=O)nc12
0.39 µM | – | > 100 µM | 1.5 | CCCc1nn(C)c2c(=O)[nH]c(-c3cc(S(=O)(=O)N4CCNCC4)ccc3OCC)nc12
– | – | > 100 µM | – | CCCc1nn(C)c2c(=O)[nH]c(-c3ccccc3[N+](=O)[O-])nc12
– | – | – | 2.7 | CCCc1nn(C)c2c(=O)[nH]c(-c3cc(S(=O)(=O)N4CCN(C)CC4)ccc3OCC)nc12
0.79 µM | 0.027 µM | > 100 µM | 4 | CCCc1nn(C)c2c(=O)[nH]c(-c3ccccc3OCC)nc12
